In brackets after ≈: the same amount, converted by molar mass.
Assays:
[1] = Assay condition for measuring solubility; format: physicochemical; details: for solubility at 24 h: thermodynamic from solid, aqueous, sodium phosphate buffer pH 7.4, 24 h, 25° C.
Protocol: A 30 mM DMSO stock is prepared of the sample and then a 25 μL aliquot is added to a 96-well plate and genevac at 40° C. for 4 hours. To the genevac compound add 250 μL of sodium phosphate buffer (pH 7.4) and then mix at 1200 rpm for 24 h using an Eppendorf Thermomixer at 25° C. After mixing solution is transferred to a 96-well Whatman GF/B filter plate and then filtered under vacuum. The supernatant is then injected onto the LC/MS for analysis and quantitation is performed using a 1-point calibration for the compound of interest.

[2] = Metabolic stability assay in human liver microsomes; format: in vitro ADME
Protocol: (§1) A solution of 500 μl of 100 μM compound in DMSO is incubated with human or rat liver microsomes (843 μl of microsomes of 0.5618 mg/mL in 30 ml 0.1 M KH2PO4 buffer pH7.4) at 37° C. for 10 min in a 96-deep well plate. NADPH (46 μL) at a concentration of 8.33 mg/ml in 100 mM KH2PO4 buffer pH 7.4 is added to start the reaction. The reaction mixtures are transferred to a 384-well plate containing acetonitrile to quench the reaction at time 0, 10, 20, 30 minutes. The 384 well plate is centrifuged for 30 min at 9000 g, at 4° C., from which samples are analyzed by LC/MS (model: XDB Eclipse C18). Three references are analyzed by LC/MS as a positive control. Data are processed following a standard procedure. The metabolic stability of assayed compounds is expressed as μL/min/mg

[3] = Metabolic stability assay in rat liver microsomes; format: in vitro ADME; details: pH 7.4, 37° C., read-out: rCLint
Protocol: as §1

Human CB1 receptor [4] = biological target: T1, Human CB1 receptor (Homo sapiens, UniProt P21554); experiment: hCB1 receptor binding (3H-CP55,940 displacement); details: Ki=IC50/(1+[rad]/Kd)
T1 construct: purchased Receptor Biology
Protocol: Human CB1 receptor from Receptor Biology (hCB1) or human CB2 receptor from BioSignal (hCB2) membranes are thawed at 37° C., passed 3 times through a 25-gauge blunt-end needle, diluted in the cannabinoid binding buffer (50 mM Tris, 2.5 mM EDTA, 5 mM MgCl2, and 0.5 mg/mL BSA fatty acid free, pH 7.4) and aliquots containing the appropriate amount of protein are distributed in 96-well plates. The IC50 of the compounds of the invention at hCB1 and hCB2 are evaluated from 10-point dose-response curves done with ^3H-CP55,940 at 20000 to 25000 dpm per well (0.17-0.21 nM) in a final volume of 300 μl. The total and non-specific binding are determined in the absence and presence of 0.2 μM of HU210 respectively. The plates are vortexed and incubated for 60 minutes at room temperature, filtered through Unifilters GF/B (presoaked in 0.1% polyethyleneimine) with the Tomtec or Packard harvester using 3 mL of wash buffer (50 mM Tris, 5 mM MgCl2, 0.5 mg BSA pH 7.0). The filters are dried for 1 hour at 55° C. The radioactivity (cpm) is counted in a TopCount (Packard) after adding 65 μl/well of MS-20 scintillation liquid.
Based on the above assays, the dissociation constant (Ki) for a particular compound of the invention towards a particular receptor is determined using the following equation: Ki=IC50/(1+[rad]/Kd), […]

Human CB1 receptor [5] = biological target: T1, Human CB1 receptor; experiment: hCB1 GTPγS binding; format: biochemical
Protocol: Human CB1 receptor from Receptor Biology (hCB1) or human CB2 receptor membranes (BioSignal) are thawed at 37° C., passed 3 times through a 25-gauge blunt-end needle and diluted in the GTPγS binding buffer (50 mM Hepes, 20 mM NaOH, 100 mM NaCl, 1 mM EDTA, 5 mM MgCl2, pH 7.4, 0.1% BSA). The EC50 and Emax of the compounds of the invention are evaluated from 10-point dose-response curves done in 300 μl with the appropriate amount of membrane protein and 100000-130000 dpm of GTPg^35S per well (0.11-0.14 nM). The basal and maximal stimulated binding is determined in absence and presence of 1 μM (hCB2) or 10 μM (hCB1) Win 55,212-2 respectively. The membranes are pre-incubated for 5 minutes with 56.25 μM (hCB2) or 112.5 μM (hCB1) GDP prior to distribution in plates (15 μM (hCB2) or 30 μM (hCB1) GDP final). The plates are vortexed and incubated for 60 minutes at room temperature, filtered on Unifilters GF/B (presoaked in water) with the Tomtec or Packard harvester using 3 ml of wash buffer (50 mM Tris, 5 mM MgCl2, 50 mM NaCl, pH 7.0). The filters are dried for 1 hour at 55° C. The radioactivity (cpm) is counted in a TopCount (Packard) after adding 65 μl/well of MS-20 scintillation liquid. […]

[6] = pH 7.4, 37° C., read-out: hCLint

T1 sequence (P21554 whole entry): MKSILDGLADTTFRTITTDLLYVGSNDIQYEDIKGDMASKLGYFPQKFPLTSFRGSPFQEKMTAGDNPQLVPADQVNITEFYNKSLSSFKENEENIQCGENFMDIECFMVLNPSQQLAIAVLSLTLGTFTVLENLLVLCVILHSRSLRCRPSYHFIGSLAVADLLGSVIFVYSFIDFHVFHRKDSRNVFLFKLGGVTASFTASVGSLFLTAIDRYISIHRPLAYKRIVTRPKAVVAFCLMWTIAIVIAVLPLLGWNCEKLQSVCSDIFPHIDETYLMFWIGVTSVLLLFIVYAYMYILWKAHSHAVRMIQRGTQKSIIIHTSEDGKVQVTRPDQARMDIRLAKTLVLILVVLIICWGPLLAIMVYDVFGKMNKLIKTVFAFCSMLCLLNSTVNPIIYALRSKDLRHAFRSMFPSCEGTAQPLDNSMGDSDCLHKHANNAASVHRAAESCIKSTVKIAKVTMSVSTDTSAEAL

Row | Structure (SMILES) | solubility at 24 h [1] | microsomal CLint at 1.6 µM [2, 6] | microsomal CLint at 1.6 µM [3] | other results
1 | CCCS(=O)(=O)Nc1ccc2c(c1)nc(C(C)(C)C)n2CC1CCC(F)(F)CC1 | 3.79 µM (≈ 1.62 µg/mL) | 10.7 µL/min/mg | 8.04 µL/min/mg | –
2 | CCS(=O)(=O)Nc1ccc2c(c1)nc(C(C)(C)C)n2CC1CCC(F)(F)CC1 | 7.36 µM (≈ 3.04 µg/mL) | 5.76 µL/min/mg | 11.7 µL/min/mg | –
3 | CC(C)(C)c1nc2cc(NS(C)(=O)=O)ccc2n1CC1CCC(F)(F)CC1 | 4.3 µM (≈ 1.72 µg/mL) | 7.41 µL/min/mg | 23.4 µL/min/mg | –
4 | CC(C)(C)c1nc2cc(NS(=O)(=O)C3CC3)ccc2n1CC1CCC(F)(F)CC1 | 5.93 µM (≈ 2.52 µg/mL) | 7.77 µL/min/mg | 10.2 µL/min/mg | –
5 | CC(F)(F)c1nc2cc(NS(=O)(=O)C3CC3)ccc2n1CC1CCC(F)(F)CC1 | 51.9 µM (≈ 22.5 µg/mL) | 5.27 µL/min/mg | < 4 µL/min/mg | –
6 | CCS(=O)(=O)Nc1ccc2c(c1)nc(C(C)(C)C)n2CC1CCC(F)CC1 (centres unmarked) | 353 µM (≈ 140 µg/mL) | 5.72 µL/min/mg | 62.6 µL/min/mg | –
7 | CC(C)(C)c1nc2cc(NS(=O)(=O)C(C)(C)C)ccc2n1CC1CCC(F)(F)CC1 | 0.61 µM (≈ 0.269 µg/mL) | 8.03 µL/min/mg | 15.4 µL/min/mg | –
8 | CC(F)(F)c1nc2cc(NS(=O)(=O)C(C)(C)C)ccc2n1CC1CCC(F)(F)CC1 | 0.51 µM (≈ 0.229 µg/mL) | < 4 µL/min/mg | 6.87 µL/min/mg | –
9 | CC(C)(C)c1nc2cc(NS(=O)(=O)C3CC3)ccc2n1CC1CCC(F)CC1 (centres unmarked) | 233 µM (≈ 95 µg/mL) | < 4 µL/min/mg | – | –
10 | CC(C)(C)c1nc2cc(NS(=O)(=O)C(C)(C)C)ccc2n1CC1CCC(F)CC1 (centres unmarked) | 154 µM (≈ 65.3 µg/mL) | 11.5 µL/min/mg | – | –
11 | CCS(=O)(=O)Nc1ccc2c(c1)nc(C(C)(C)C)n2CC1CCC(F)CC1 (single isomer, unassigned) [Isomer A, N-{2-tert-Butyl-1-[(4-fluorocyclohexyl)methyl]-1H-benzimidazol-5-yl}ethanesulfonamide (isomers)] | – | – | – | Sol. pH 7.4 ([1]; listed as A): 64 μM; Ki (Human CB1 receptor [4]): 148 nM
12 | CCS(=O)(=O)Nc1ccc2c(c1)nc(C(C)(C)C)n2CC1CCC(F)CC1 (single isomer, unassigned) [Isomer B, N-{2-tert-Butyl-1-[(4-fluorocyclohexyl)methyl]-1H-benzimidazol-5-yl}ethanesulfonamide (isomers)] | – | – | – | Sol. pH 7.4 ([1]; listed as B): 381 μM; microsomal CLint at 1.6 µM ([2]; pH 7.4, read-out: hClint): 7.7 µL/min/mg; EC50 (Human CB1 receptor [5]): 4.9 nM; Emax (Human CB1 receptor [5]; maximal stimulation with 10 μM Win 55,212-2): 103%; Ki (Human CB1 receptor [4]): 14.8 nM

Source: US7550495B2 (priority 2004, dated 2009)
